Data reported in the supplement of paper PMC10307832.

Assays:
Experiment in all cases: relative viability (nuclei count vs DMSO), 5 days (fraction); higher = more cells survive
RO-3306 + Foretinib = compound: C1=CC2=C(C=CC(=C2)C=C3C(=O)NC(=NCC4=CC=CS4)S3)N=C1 [RO-3306] + COc1cc2c(Oc3ccc(NC(=O)C4(C(=O)Nc5ccc(F)cc5)CC4)cc3F)ccnc2cc1OCCCN1CCOCC1 [Foretinib] (partner 0.25 µM)
In short: (§1)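 The day after seeding in 1536-well plates, lung cancer cell lines were treated by pin tool with a single drug, or with a fixed anchor-drug dose together with five library-drug doses (not always all listed) in √10 steps. After 5 days, a combined fix-and-stain solution (final 0.05% Triton X-100, 1% formaldehyde, 1 ug/ml Hoechst) was added. Nuclei counted on 4× images gave relative viability as treated counts over vehicle counts, reported as the median of duplicate plates.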

RO-3306 + OSI-027 = compound: C1=CC2=C(C=CC(=C2)C=C3C(=O)NC(=NCC4=CC=CS4)S3)N=C1 [RO-3306] + COc1cccc2cc(-c3nc([C@H]4CC[C@H](C(=O)O)CC4)n4ncnc(N)c34)[nH]c12 [OSI-027] (partner 0.5 µM)
In short: as §1

RO-3306 + Olaparib = compound: C1=CC2=C(C=CC(=C2)C=C3C(=O)NC(=NCC4=CC=CS4)S3)N=C1 [RO-3306] + O=C(c1cc(Cc2n[nH]c(=O)c3ccccc23)ccc1F)N1CCN(C(=O)C2CC2)CC1 [Olaparib] (partner 8 µM)
In short: as §1

[1] = compound: O=S(=O)(c1ccccc1)N(CC(F)(F)F)c1ccc(C(O)(C(F)(F)F)C(F)(F)F)cc1 + Nc1ncn([C@H]2C[C@H](O)[C@@H](CO)O2)c(=O)n1 [Decitabine] (partner 2 µM)
In short: as §1

UMC-11
relative viability (RO-3306 + Foretinib; first compound 0.01 µM): 0.999 | relative viability (RO-3306 + Foretinib; first compound 0.03162 µM): 0.772 | relative viability (RO-3306 + Foretinib; first compound 0.1 µM): 1.05 | relative viability (RO-3306 + Foretinib; first compound 0.3162 µM): 1.21 | relative viability (RO-3306 + Foretinib; first compound 1 µM): 1.16 | relative viability (RO-3306 + OSI-027; first compound 0.01 µM): 0.496 | relative viability (RO-3306 + OSI-027; first compound 0.03162 µM): 0.384 | relative viability (RO-3306 + OSI-027; first compound 0.1 µM): 0.456 | relative viability (RO-3306 + OSI-027; first compound 0.3162 µM): 0.552 | relative viability (RO-3306 + OSI-027; first compound 1 µM): 0.453 | relative viability (RO-3306 + Olaparib; first compound 0.01 µM): 0.365 | relative viability (RO-3306 + Olaparib; first compound 0.03162 µM): 0.411 | relative viability (RO-3306 + Olaparib; first compound 0.1 µM): 0.351 | relative viability (RO-3306 + Olaparib; first compound 0.3162 µM): 0.385 | relative viability (RO-3306 + Olaparib; first compound 1 µM): 0.299 | relative viability ([1]; first compound 0.8 µM): 0.587 | relative viability ([1]; first compound 2.53 µM): 0.471 | relative viability ([1]; first compound 8 µM): 0.681
